Blank lines part the entries; values can stand above or below the compound they belong to.
Key:
[1] = target: T1, Mitogen-activated protein kinase kinase kinase 3 (Homo sapiens) (UniProt Q99759); test: Selectivity interaction (KinomeScan (DiscoverX)) EUB0000666a MAP3K3; settings: at 10 µM
T1 sequence (whole entry): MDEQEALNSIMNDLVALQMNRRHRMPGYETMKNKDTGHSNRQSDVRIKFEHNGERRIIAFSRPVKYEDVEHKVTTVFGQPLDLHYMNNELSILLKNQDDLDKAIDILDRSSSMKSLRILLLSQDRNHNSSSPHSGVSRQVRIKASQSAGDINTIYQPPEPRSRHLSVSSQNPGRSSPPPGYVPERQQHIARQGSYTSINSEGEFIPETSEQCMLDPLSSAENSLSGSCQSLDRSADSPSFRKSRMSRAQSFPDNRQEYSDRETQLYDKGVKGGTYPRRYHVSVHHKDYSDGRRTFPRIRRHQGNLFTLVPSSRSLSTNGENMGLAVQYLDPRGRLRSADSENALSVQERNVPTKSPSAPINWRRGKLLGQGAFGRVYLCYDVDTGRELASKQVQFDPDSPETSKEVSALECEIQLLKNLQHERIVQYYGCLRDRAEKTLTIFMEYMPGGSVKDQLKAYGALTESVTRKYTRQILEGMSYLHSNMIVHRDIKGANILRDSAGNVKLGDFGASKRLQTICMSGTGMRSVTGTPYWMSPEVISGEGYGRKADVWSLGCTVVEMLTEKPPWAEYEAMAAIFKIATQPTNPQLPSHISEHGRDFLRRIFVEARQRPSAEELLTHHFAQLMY

[2] = target: Mitogen-activated protein kinase kinase kinase 11 (Homo sapiens) (UniProt Q16584); test: Selectivity interaction (ActivX KiNativ screen (kinase selectivity in THP-1 cell lysates)) EUB0000639a MAP3K11; type: subcellular; settings: lysate, at 5 µM
[3] = target: Ribosomal protein S6 kinase alpha-3 (Homo sapiens, UniProt P51812); test: Selectivity interaction (ActivX KiNativ screen (kinase selectivity in THP-1 cell lysates)) EUB0000639a RPS6KA3; type: subcellular; settings: lysate
[4] = target: T2, Serine/threonine-protein kinase ULK3 (Homo sapiens) (UniProt Q6PHR2); test: Selectivity interaction (ActivX KiNativ screen (kinase selectivity in THP-1 cell lysates)) EUB0000639a ULK3; type: subcellular; settings: lysate, at 0.01 µM
T2 sequence (whole entry): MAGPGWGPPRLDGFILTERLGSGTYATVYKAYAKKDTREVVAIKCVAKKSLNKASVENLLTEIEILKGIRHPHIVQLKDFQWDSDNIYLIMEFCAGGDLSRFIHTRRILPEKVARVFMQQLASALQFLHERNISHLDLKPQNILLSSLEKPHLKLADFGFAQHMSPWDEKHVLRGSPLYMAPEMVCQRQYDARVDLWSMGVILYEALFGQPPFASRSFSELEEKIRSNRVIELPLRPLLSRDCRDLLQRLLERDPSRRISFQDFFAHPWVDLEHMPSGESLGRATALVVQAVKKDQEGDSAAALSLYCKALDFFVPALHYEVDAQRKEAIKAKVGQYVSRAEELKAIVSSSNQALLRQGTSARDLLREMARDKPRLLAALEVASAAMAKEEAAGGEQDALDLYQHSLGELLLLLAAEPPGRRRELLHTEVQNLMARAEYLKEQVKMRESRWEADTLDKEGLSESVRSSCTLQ

[5] = system: Phosphatidylinositol 4,5-bisphosphate 3-kinase catalytic subunit alpha isoform (Homo sapiens), P42336 [Q546K]; settings: at 10 µM
[6] = target: Activin receptor type-1-like (Homo sapiens) (UniProt P37023); test: Selectivity interaction (KinomeScan (DiscoverX)) EUB0001049a ACVRL1; settings: at 1 µM
[7] = target: Dual specificity mitogen-activated protein kinase kinase 2 (Homo sapiens) (UniProt P36507)
[8] = target: T3, Serine/threonine-protein kinase Sgk3 (Homo sapiens) (UniProt Q96BR1); test: Selectivity interaction (KinomeScan (DiscoverX)) EUB0000655a SGK3; settings: at 10 µM
T3 sequence (whole entry): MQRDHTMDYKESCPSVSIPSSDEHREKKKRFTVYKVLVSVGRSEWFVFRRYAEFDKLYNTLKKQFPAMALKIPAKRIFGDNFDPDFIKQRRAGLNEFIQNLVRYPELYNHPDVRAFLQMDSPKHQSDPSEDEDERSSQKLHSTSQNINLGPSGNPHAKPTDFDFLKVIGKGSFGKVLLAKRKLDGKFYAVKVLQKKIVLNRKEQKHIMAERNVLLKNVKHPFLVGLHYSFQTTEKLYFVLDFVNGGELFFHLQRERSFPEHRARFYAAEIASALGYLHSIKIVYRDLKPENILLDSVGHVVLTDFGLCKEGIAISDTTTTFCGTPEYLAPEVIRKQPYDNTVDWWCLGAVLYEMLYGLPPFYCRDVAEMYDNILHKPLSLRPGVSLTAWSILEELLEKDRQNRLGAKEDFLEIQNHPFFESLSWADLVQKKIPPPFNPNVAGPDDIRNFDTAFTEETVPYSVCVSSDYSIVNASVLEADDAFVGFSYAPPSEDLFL

[9] = target: Cyclin-dependent kinase 17 (Homo sapiens) (UniProt Q00537); test: Selectivity interaction (KinomeScan (DiscoverX)) EUB0000229b CDK17; settings: at 10 µM
[10] = target: Mitogen-activated protein kinase kinase kinase 11 (Homo sapiens) (UniProt Q16584); settings: at 10 µM
[11] = target: High affinity nerve growth factor receptor (Homo sapiens, UniProt P04629); test: Selectivity interaction (KinomeScan (DiscoverX)) EUB0000618a NTRK1; settings: at 10 µM
Chain of High affinity nerve growth factor receptor (P04629 33-796 limits assumed): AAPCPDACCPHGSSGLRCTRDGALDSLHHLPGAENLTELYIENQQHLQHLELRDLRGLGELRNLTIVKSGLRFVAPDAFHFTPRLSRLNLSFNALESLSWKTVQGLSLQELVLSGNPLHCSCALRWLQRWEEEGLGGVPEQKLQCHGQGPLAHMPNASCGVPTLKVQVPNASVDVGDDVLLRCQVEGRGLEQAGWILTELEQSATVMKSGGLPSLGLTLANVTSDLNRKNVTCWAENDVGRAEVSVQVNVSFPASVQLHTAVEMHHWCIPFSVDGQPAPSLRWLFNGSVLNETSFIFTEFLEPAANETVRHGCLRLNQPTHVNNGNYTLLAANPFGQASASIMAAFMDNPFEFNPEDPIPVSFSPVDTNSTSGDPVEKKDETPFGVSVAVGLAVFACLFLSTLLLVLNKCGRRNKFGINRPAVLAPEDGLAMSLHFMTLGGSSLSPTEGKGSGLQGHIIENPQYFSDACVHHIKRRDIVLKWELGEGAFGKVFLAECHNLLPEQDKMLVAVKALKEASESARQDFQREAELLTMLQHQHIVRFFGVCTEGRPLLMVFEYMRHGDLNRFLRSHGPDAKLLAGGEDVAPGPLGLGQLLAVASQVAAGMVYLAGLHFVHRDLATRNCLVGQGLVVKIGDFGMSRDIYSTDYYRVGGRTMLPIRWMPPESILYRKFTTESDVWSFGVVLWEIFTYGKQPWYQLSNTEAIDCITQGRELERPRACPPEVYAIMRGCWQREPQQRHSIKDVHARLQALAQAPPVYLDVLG

Chain of Ribosomal protein S6 kinase alpha-3 (P51812 whole entry): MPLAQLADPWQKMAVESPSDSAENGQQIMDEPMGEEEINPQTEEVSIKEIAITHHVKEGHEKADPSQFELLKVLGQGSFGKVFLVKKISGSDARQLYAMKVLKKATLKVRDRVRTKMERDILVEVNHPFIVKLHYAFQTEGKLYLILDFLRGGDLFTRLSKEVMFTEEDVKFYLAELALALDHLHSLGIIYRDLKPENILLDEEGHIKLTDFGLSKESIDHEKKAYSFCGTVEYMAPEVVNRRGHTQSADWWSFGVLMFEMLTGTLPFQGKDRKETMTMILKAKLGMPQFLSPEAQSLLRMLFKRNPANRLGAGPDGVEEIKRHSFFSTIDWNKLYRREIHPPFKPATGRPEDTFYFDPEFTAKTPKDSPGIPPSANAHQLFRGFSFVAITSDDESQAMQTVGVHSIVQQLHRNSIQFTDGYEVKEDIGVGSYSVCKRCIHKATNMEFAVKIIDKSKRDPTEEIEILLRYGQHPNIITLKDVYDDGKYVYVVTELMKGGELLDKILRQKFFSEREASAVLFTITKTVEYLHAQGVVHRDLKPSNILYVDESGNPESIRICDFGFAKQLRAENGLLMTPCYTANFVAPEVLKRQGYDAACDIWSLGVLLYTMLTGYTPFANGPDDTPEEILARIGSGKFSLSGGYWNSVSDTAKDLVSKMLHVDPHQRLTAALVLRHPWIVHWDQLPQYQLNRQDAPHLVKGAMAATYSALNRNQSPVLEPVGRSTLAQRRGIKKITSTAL
Chain of Mitogen-activated protein kinase kinase kinase 11 (Homo sapiens) (Q16584 whole entry, looked up): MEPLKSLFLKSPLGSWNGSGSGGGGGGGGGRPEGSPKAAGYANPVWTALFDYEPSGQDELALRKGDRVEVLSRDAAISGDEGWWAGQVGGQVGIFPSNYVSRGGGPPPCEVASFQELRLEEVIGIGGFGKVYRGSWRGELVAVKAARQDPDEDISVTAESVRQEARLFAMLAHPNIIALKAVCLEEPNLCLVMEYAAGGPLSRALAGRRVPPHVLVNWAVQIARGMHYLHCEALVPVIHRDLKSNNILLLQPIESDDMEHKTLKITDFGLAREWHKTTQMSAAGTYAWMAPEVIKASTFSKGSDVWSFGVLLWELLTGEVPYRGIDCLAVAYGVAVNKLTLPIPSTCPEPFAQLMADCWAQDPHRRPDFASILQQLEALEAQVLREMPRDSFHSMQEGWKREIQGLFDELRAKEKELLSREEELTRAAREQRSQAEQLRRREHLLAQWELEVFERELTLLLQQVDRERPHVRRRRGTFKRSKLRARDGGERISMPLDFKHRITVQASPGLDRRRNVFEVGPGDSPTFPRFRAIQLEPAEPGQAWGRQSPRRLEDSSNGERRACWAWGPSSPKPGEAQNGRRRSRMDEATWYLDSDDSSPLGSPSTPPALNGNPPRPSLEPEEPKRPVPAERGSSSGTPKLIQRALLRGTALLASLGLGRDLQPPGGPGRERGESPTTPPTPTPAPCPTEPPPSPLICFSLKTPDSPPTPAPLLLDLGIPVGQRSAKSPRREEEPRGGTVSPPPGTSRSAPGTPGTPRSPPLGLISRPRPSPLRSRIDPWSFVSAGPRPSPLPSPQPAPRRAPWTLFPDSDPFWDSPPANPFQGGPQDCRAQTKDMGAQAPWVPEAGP
Chain of Dual specificity mitogen-activated protein kinase kinase 2 (Homo sapiens) (P36507 whole entry): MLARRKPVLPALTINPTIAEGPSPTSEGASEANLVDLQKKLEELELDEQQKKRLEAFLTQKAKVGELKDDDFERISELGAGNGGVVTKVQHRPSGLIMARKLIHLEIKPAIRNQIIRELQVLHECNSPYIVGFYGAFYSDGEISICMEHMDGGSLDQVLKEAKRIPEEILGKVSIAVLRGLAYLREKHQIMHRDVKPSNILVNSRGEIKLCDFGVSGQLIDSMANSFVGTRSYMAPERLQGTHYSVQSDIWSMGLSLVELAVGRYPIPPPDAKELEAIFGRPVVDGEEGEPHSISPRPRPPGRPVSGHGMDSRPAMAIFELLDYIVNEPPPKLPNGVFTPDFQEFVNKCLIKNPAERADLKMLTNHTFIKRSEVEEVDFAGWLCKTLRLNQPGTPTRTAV
Chain of Activin receptor type-1-like (Homo sapiens) (P37023 whole entry): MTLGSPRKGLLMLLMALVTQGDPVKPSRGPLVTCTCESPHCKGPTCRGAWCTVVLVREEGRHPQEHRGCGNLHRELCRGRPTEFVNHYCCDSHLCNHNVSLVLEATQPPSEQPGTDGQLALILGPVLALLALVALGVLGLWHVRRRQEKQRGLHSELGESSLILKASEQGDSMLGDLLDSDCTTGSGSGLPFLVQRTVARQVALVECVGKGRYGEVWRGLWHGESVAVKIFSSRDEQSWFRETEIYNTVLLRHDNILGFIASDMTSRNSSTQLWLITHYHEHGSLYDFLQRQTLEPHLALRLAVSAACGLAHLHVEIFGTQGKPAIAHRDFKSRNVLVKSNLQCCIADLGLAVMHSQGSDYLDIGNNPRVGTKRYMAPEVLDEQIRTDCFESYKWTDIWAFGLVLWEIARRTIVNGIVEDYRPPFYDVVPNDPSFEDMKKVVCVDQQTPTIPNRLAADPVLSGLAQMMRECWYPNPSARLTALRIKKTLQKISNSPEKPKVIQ
Chain of Cyclin-dependent kinase 17 (Homo sapiens) (Q00537 whole entry, looked up): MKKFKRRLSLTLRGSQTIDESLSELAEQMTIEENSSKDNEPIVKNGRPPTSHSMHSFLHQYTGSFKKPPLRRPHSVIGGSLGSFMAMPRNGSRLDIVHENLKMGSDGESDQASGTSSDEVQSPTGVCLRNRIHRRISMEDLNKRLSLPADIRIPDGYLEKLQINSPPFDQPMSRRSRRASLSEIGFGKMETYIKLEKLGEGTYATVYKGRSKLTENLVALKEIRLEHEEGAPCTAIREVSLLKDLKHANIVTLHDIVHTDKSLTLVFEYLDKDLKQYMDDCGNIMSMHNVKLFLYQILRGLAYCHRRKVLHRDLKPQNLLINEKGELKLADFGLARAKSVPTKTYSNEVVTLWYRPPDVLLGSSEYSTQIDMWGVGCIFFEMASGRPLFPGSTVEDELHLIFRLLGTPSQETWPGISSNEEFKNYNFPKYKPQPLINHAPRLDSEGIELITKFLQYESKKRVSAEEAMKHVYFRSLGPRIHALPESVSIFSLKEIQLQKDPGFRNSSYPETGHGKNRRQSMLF
Chain of Phosphatidylinositol 4,5-bisphosphate 3-kinase catalytic subunit alpha isoform (Homo sapiens), P42336 [Q546K] (P42336 whole entry Q546K, canonical isoform): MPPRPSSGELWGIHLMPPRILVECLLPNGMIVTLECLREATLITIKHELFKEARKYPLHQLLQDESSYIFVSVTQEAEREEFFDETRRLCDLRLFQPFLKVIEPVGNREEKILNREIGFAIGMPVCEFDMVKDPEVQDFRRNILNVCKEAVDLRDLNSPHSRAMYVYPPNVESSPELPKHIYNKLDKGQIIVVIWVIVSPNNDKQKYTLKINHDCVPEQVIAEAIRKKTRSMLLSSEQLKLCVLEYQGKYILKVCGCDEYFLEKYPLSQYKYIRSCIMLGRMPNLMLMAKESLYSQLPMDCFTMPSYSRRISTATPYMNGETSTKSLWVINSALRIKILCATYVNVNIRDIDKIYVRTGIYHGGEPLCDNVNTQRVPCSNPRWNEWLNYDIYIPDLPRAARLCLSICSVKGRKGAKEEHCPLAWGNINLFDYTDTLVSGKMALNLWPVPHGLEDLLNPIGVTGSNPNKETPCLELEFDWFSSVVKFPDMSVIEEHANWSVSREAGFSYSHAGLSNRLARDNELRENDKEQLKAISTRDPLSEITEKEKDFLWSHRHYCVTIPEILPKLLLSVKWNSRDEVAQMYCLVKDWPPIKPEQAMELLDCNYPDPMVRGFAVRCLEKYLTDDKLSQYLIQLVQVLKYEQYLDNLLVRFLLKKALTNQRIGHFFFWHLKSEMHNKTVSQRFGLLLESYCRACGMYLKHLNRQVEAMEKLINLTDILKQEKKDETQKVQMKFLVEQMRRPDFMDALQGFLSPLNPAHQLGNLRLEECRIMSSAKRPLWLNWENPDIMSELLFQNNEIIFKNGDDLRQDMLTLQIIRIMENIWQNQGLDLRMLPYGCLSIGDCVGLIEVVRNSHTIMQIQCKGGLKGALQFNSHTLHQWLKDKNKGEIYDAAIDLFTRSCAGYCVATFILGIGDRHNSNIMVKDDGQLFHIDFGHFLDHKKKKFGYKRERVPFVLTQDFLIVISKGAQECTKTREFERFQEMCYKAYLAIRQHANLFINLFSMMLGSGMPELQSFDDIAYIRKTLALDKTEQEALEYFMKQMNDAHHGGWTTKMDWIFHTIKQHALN

Structure (SMILES): O=C(NOC[C@H](O)CO)c1ccc(F)c(F)c1Nc1ccc(I)cc1F
% of control [1]: 98%

% of inhibition [2]: -18.7%
% of inhibition ([3]; at 0.01 µM): 16.9%
% of inhibition ([3]; at 0.04 µM): 12.4%
% of inhibition ([3]; at 0.2 µM): 10.3%
% of inhibition ([3]; at 1 µM): 8.6%
% of inhibition ([3]; at 5 µM): 11.7%
% of inhibition [4]: -8.9%
Structure (SMILES): CC[C@@H]1[C@H](F)C(=O)N[C@@H]1COc1nccc2cc(C(N)=O)c(OC)cc12 [ZIMLOVISERTIB]

Structure (SMILES): COCC(=O)NC/C=C/c1ccc2ncnc(Nc3ccc(Oc4ccc(C)nc4)c(C)c3)c2c1 [CP-724714]
% of control [5]: 38%

Structure (SMILES): COc1cc(Nc2nc(C)cc(-c3cnn4nc(OC)ccc34)n2)cc(C(F)(F)F)c1
% of control [6]: 89%

Kdapp [7]: 9 nM
Structure (SMILES): CC(=O)Nc1cccc(-n2c(=O)n(C3CC3)c(=O)c3c(Nc4ccc(I)cc4F)n(C)c(=O)c(C)c32)c1

Structure (SMILES): CN(C)CCOc1ccc(-c2nc(-c3ccncc3)c(-c3ccc4c(c3)CC/C4=N\O)[nH]2)cc1
% of control [8]: 88%

Structure (SMILES): COc1cc(N(C)c2ccnc3ccc(C(F)(F)F)cc23)cc(OC)c1OC
% binding [9]: 88%

Structure (SMILES): Cc1cc([C@@H](C)Nc2ccccc2C(=O)O)c2nc(N3CCOCC3)cc(=O)n2c1 [AZD-6482]
% of control [10]: 100%

Structure (SMILES): O[C@H]1CC[C@H](Nc2ncc3nc(Nc4c(F)cc(F)cc4F)n([C@H]4CCOC4)c3n2)CC1
% of control [11]: 75%
